33 molecules from BindingDB's records for doi:10.1016/j.bmcl.2017.09.048 (St. John'S University, 2017) can be followed below.

The structures appear in SMILES notation.

Usually IC50 stands for the midpoint of a concentration-inhibition curve.

Test [1] can be described thus: Inhibition of ABL T315I mutant in mouse BAF3 cells assessed as reduction in cell viability after 72 hrs by MTT assay.
A short description of test [2]: Inhibition of ABL in mouse BAF3 cells assessed as reduction in cell viability after 72 hrs by MTT assay. (In general: Formazan colour is commonly taken as a measure of viable cells.)

For `COc1cc(N2CCN(C)CC2)ccc1Nc1ncc(Cl)c(Oc2cccc(NC(C)=O)c2)n1`, the IC50 was 5.56 µM in test [1] and 2.91 µM in test [2].
Take `C=CC(=O)Nc1cccc(Oc2nc(Nc3ccc(N4CCN(C)CC4)cc3OC)ncc2Cl)c1`: the figures for the IC50 in test [1] and in test [2] were 16.3 µM and 9.69 µM, respectively.
On the same counts, the results for `COc1cc(N2CCN(C)CC2)ccc1Nc1ncc(Cl)c(Oc2cccc([N+](=O)[O-])c2)n1` are 9.15 µM and 6.8 µM.
`COc1cc(N2CCN(C)CC2)ccc1Nc1ncc(Cl)c(Oc2cccc(N=C=S)c2)n1`: the IC50 in test [1] was found to be 4.99 µM; in test [2], 8.41 µM.
Regarding `COc1cc(N2CCN(C)CC2)ccc1Nc1ncc(Cl)c(Oc2cccc(NC(=O)CO)c2)n1`, the IC50 in test [1] is 1.12 µM; in test [2], 1.48 µM.
With `COc1cc(N2CCN(C)CC2)ccc1Nc1ncc(Cl)c(Oc2ccc([N+](=O)[O-])cc2)n1`, the results for the IC50 in test [1] and in test [2] were 6.89 µM and 3.48 µM, respectively.
On the same counts, the results for `COc1cc(N2CCN(C)CC2)ccc1Nc1ncc(Cl)c(Oc2ccc(N=[N+]=[N-])cc2)n1` are 15.1 µM and 13.1 µM.
Turning to `COc1cc(N2CCN(C)CC2)ccc1Nc1ncc(Cl)c(Oc2ccc(NC(=O)CCO)cc2)n1`, the IC50 in test [1] was determined as 3.35 µM; in test [2] it was 3.25 µM.
Take `C=CC(=O)Nc1ccc(Oc2nc(Nc3ccc(N4CCN(C)CC4)cc3OC)ncc2Cl)cc1`: the IC50 in test [1] was 7.7 µM; in test [2] it was 6.39 µM.
On to `COc1cc(N2CCN(C)CC2)ccc1Nc1ncc(Cl)c(Oc2ccc(N=C=S)cc2)n1`, for which the IC50 in test [1] was determined as 9.53 µM; in test [2], 7.5 µM.
Consider `COc1cc(N2CCN(C)CC2)ccc1Nc1ncc(Cl)c(Oc2ccc(NC(=O)CO)cc2)n1`, for which the 50% inhibitory concentration (IC50) in test [1] came to 2.74 µM; in test [2], 6.68 µM.
For `COc1cc(N2CCN(C)CC2)ccc1Nc1ncc(Cl)c(Oc2ccccc2[N+](=O)[O-])n1` the same measures were 11.6 µM and 6.81 µM.
For the molecule `COc1cc(N2CCN(C)CC2)ccc1Nc1ncc(Cl)c(Oc2ccccc2N=C=S)n1`, the half-inhibitory concentration (IC50) in test [1] is 8.99 µM; in test [2] it was 5.56 µM.
For `COc1cc(N2CCN(C)CC2)ccc1Nc1ncc(Cl)c(Oc2ccccc2NC(=O)CO)n1`, the 50% inhibitory concentration (IC50) in test [1] turned out to be 4.18 µM; in test [2] it was 2.07 µM.
On to `COc1cc(N2CCN(C)CC2)ccc1Nc1ncc(Cl)c(Oc2ccccc2N)n1`, for which the IC50 in test [1] worked out at 5.74 µM; in test [2], 6.73 µM.
For `COc1cc(N2CCN(C)CC2)ccc1Nc1ncc(Cl)c(Oc2ccccc2NC(=O)/C=C/CN(C)C)n1` the same measures were 8.12 µM and 9.1 µM.
As to `COc1cc(N2CCN(C)CC2)ccc1Nc1ncc(Cl)c(Oc2ccccc2NC(=O)CCO)n1`, the values for the IC50 in test [1] and in test [2] were 3.86 µM and 2.12 µM, respectively.
As to `COc1cc(N2CCN(C)CC2)ccc1Nc1ncc(Cl)c(Oc2cccc(NC(=O)COCc3ccccc3)c2)n1`, the IC50 in test [1] was found to be 2.87 µM; in test [2], 2.44 µM.
For the molecule `COc1cc(N2CCN(C)CC2)ccc1Nc1ncc(Cl)c(Oc2cccc(NC(=O)CCOCc3ccccc3)c2)n1`, the IC50 was determined as 2.49 µM in test [1] and 2.47 µM in test [2].
On the same counts, the results for `COc1cc(N2CCN(C)CC2)ccc1Nc1ncc(Cl)c(Oc2cccc(NC(=O)CCO)c2)n1` are 1.39 µM and 2.07 µM.
For `COc1cc(N2CCN(C)CC2)ccc1Nc1ncc(Cl)c(Oc2ccc(N)cc2)n1` the same measures were 5.47 µM and 2.81 µM.
For `COc1cc(N2CCN(C)CC2)ccc1Nc1ncc(Cl)c(Oc2ccc(NC(C)=O)cc2)n1` the same measures were 2.89 µM and 2.08 µM.
For `COc1cc(N2CCN(C)CC2)ccc1Nc1ncc(Cl)c(Oc2ccc(NC(=O)/C=C/CN(C)C)cc2)n1`, the IC50 was found to be 3.41 µM in test [1] and 4.72 µM in test [2].
As to `COc1cc(N2CCN(C)CC2)ccc1Nc1ncc(Cl)c(Oc2ccc(NC(=O)COCc3ccccc3)cc2)n1`, the IC50 in test [1] came to 3.62 µM; in test [2] it was 2.11 µM.
As to `COc1cc(N2CCN(C)CC2)ccc1Nc1ncc(Cl)c(Oc2ccc(NC(=O)CCOCc3ccccc3)cc2)n1`, the IC50 in test [1] stood at 1.5 µM; in test [2], 1.43 µM.
On the same counts, the results for `COc1cc(N2CCN(C)CC2)ccc1Nc1ncc(Cl)c(Oc2cccc(N)c2)n1` are 1.96 µM and 1.9 µM.
With `COc1cc(N2CCN(C)CC2)ccc1Nc1ncc(Cl)c(Oc2cccc(N=[N+]=[N-])c2)n1`, the IC50 is 4.67 µM in test [1] and 3.87 µM in test [2].
`COc1cc(N2CCN(C)CC2)ccc1Nc1ncc(Cl)c(Oc2cccc(NC(=O)/C=C/CN(C)C)c2)n1`: the IC50 was found to be 6.02 µM in test [1] and 7.02 µM in test [2].
Consider `C=CC(=O)Nc1ccccc1Oc1nc(Nc2ccc(N3CCN(C)CC3)cc2OC)ncc1Cl`, for which the results for the IC50 in test [1] and in test [2] were 2.37 µM and 2.92 µM, respectively.
With `COc1cc(N2CCN(C)CC2)ccc1Nc1ncc(Cl)c(Oc2ccccc2NC(C)=O)n1`, the values for the IC50 in test [1] and in test [2] were 4.73 µM and 8.49 µM, respectively.
For `COc1cc(N2CCN(C)CC2)ccc1Nc1ncc(Cl)c(Oc2ccccc2N=[N+]=[N-])n1` the same measures were 1.33 µM and 1.45 µM.
On the same counts, the results for `COc1cc(N2CCN(C)CC2)ccc1Nc1ncc(Cl)c(Oc2ccccc2NC(=O)COCc2ccccc2)n1` are 3.5 µM and 1.37 µM.
As to `COc1cc(N2CCN(C)CC2)ccc1Nc1ncc(Cl)c(Oc2ccccc2NC(=O)CCOCc2ccccc2)n1`, the 50% inhibitory concentration (IC50) in test [1] turned out to be 3.06 µM; in test [2], 3.12 µM.
